pIC50: −log10 of the molar value.

One assay has as its system Aβ1-42 production. The experiment in a line: Cellular assay for inhibition of Aβ1-42 production (H4 APP751 SWE clone 8.20). It is filed as cell-based. The note with it: 19 h, H4 APP751 SWE clone 8.20 cells, 19 h incubation; class symbols; read-out: Activity Rating (Aβ42 cellular IC50). The method, boiled down: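 Aβ42 read by time-resolved FRET using neoepitope antibody 565 (0.8 ng/well) paired with N-terminal 26D6 (75 ng/well), incubated overnight at 4 °C, then IC50 curve fitting. Cells: H4 APP751 Swedish clone 8.20, exposed to compound for 19 h at 37 °C.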
Usually pIC50 stands for the IC50 on a negative log10 scale, so that one unit is a factor of ten. Turning to `CNc1nc(Nc2ccc(-n3cnc(C#N)c3)c(OC)c2)nc2c1CCC2c1ccccc1` (stereo not drawn) [Example 204B, 1-(2-methoxy-4-(4-(methylamino)-7-phenyl-6,7-dihydro-5H-cyclopenta[d]pyrimidin-2-ylamino)phenyl)-1H-imidazole-4-carbonitrile], the pIC50 was 6.00 to 7.00. The same measure, in the same setting: in the case of `COc1cc(Nc2nc3c(c(N4CC(F)(F)C4)n2)COCC3c2ccc(Cl)cc2)ccc1-n1cnc(Cl)c1` (stereo not drawn) [Example 66, N-(4-(4-chloro-1H-imidazol-1-yl)-3-methoxyphenyl)-8-(4-chlorophenyl)-4-(3,3-difluoroazetidin-1-yl)-7,8-dihydro-5H-pyrano[4,3-d]pyrimidin-2-amine] it was 7.00 to 8.00; in that of `CNc1nc(Nc2ccc(-n3cnc(Cl)c3)c(OC)c2)nc2c1COC2c1ccc(F)cc1` (single isomer, unassigned) [Example 79B, N^2-(4-(4-chloro-1H-imidazol-1-yl)-3-methoxyphenyl)-7-(4-fluorophenyl)-N^4-methyl-5,7-dihydrofuro[3,4-d]pyrimidine-2,4-diamine], 7.00 to 8.00. On the same count and under the same terms, in the case of `CNc1nc(Nc2ccc(C#N)cc2)nc2c1CCC2c1ccccc1` (stereo not drawn) [Example 226, 4-(4-(methylamino)-7-phenyl-6,7-dihydro-5H-cyclopenta[d]pyrimidin-2-ylamino)benzonitrile] it was 6.00 to 7.00; in that of `CNc1nc(Nc2ccc(-n3cnc(Cl)c3)c(OC)c2)nc2c1COCC2c1ccc(Cl)cc1` (stereo not drawn) [Example 64, N^2-(4-(4-chloro-1H-imidazol-1-yl)-3-methoxyphenyl)-8-(4-chlorophenyl)-N^4-methyl-7,8-dihydro-5H-pyrano[4,3-d]pyrimidine-2,4-diamine], 7.00 to 8.00; in that of `COc1cc(Nc2nc(NS(C)(=O)=O)c3c(n2)C(c2ccccc2)CC3)ccc1-n1cnc(Cl)c1` (stereo not drawn) [Example 211, N-(2-(4-(4-chloro-1H-imidazol-1-yl)-3-methoxyphenylamino)-7-phenyl-6,7-dihydro-5H-cyclopenta[d]pyrimidin-4-yl)-N-methanesulfonamide], 8.00 to 8.82. The same measure, in the same setting: in the case of `COc1cc(Nc2nc3c(c(N4CC(C)(OC)C4)n2)CCC3c2ccc(F)cc2)ccc1-n1cnc(Cl)c1` (stereo not drawn) [Example 191, N-(4-(4-chloro-1H-imidazol-1-yl)-3-methoxyphenyl)-7-(4-fluorophenyl)-4-(3-methoxy-3-methylazetidin-1-yl)-6,7-dihydro-5H-cyclopenta[d]pyrimidin-2-amine] it was 7.00 to 8.00; in that of `COc1cc(Nc2nc3c(c(N4CCC4)n2)CCC3c2ccccc2)ccc1-n1cnc(Cl)c1` (stereo not drawn) [Example 6, 4-(Azetidin-1-yl)-N-(4-(4-chloro-1H-imidazol-1-yl)-3-methoxyphenyl)-7-phenyl-6,7-dihydro-5H-cyclopenta[d]pyrimidin-2-amine], 7.00 to 8.00; in that of `COc1cc(Nc2nc3c(c(N(C)C)n2)COCC3c2ccc(Cl)cc2)ccc1-n1cnc(Cl)c1` (stereo not drawn) [Example 65, N^2-(4-(4-chloro-1H-imidazol-1-yl)-3-methoxyphenyl)-8-(4-chlorophenyl)-N^4,N^4-dimethyl-7,8-dihydro-5H-pyrano[4,3-d]pyrimidine-2,4-diamine], 7.00 to 8.00. Consider `COc1cc(Nc2nc3c(c(N4C[C@@H]5C[C@H]4CO5)n2)CCC3c2ccc(F)cc2)ccc1-n1cnc(Cl)c1` (single isomer, unassigned) [Example 18B], for which the pIC50 is 7.00 to 8.00. The same measure, in the same setting: in the case of `CNc1nc(Nc2ccc(-n3cnc(Cl)c3)c(OC)c2)nc2c1COCC2c1ccc(Br)cc1` (stereo not drawn) [Example 72, 8-(4-bromophenyl)-N^2-(4-(4-chloro-1H-imidazol-1-yl)-3-methoxyphenyl)-N^4-methyl-7,8-dihydro-5H-pyrano[4,3-d]pyrimidine-2,4-diamine] it was 8.00 to 8.82; in that of `CCN(C)c1nc(Nc2ccc(-n3cnc(Cl)c3)c(OC)c2)nc2c1CCOC2c1ccc(F)cc1` (stereo not drawn) [Example 89, N2-(4-(4-chloro-1H-imidazol-1-yl)-3-methoxyphenyl)-N4-ethyl-8-(4-fluorophenyl)-N4-methyl-6,8-dihydro-5H-pyrano[3,4-d]pyrimidine-2,4-diamine], 7.00 to 8.00.

Still in this assay, the particulars now being: 19 h, H4 APP751 SWE clone 8.20 cells, 19 h incubation; read-out: Activity Rating (Aβ42 cellular IC50), numeric value.
As to `CCNc1nc(Nc2ccc(-n3ncnc3C)c(F)c2)nc2c1CN(C(=O)C1CC1)CC2c1ccccc1` (stereo not drawn) [Example 144B, cyclopropyl(4-(ethylamino)-2-(3-fluoro-4-(5-methyl-1H-1,2,4-triazol-1-yl)phenylamino)-8-phenyl-7,8-dihydropyrido[4,3-d]pyrimidin-6(5H)-yl)methanone], the pIC50 was 6.27. The same measure, in the same setting: in the case of `COc1cc(Nc2nc3c(c(N4CC(F)(F)C4)n2)CCC3c2ccc(F)cc2)ccc1-n1cnc(Cl)n1` (single isomer, unassigned) [Example 17A, N-(4-(3-chloro-1H-1,2,4-triazol-1-yl)-3-methoxyphenyl)-4-(3,3-difluoroazetidin-1-yl)-7-(4-fluorophenyl)-6,7-dihydro-5H-cyclopenta[d]pyrimidin-2-amine] it was 6.92; in that of `COc1cc(Nc2nc3c(c(N4CCC(F)C4)n2)COCC3c2ccc(F)cc2)ccc1-n1cnc(Cl)c1` (stereo in doubt) [Example 57A, N-(4-(4-chloro-1H-imidazol-1-yl)-3-methoxyphenyl)-8-(4-fluorophenyl)-4-((R)-3-fluoropyrrolidin-1-yl)-7,8-dihydro-5H-pyrano[4,3-d]pyrimidin-2-amine], 7.85; in that of `CNc1nc(Nc2ccc(-n3cnc(Cl)c3)c(OC)c2)nc2c1CCC2c1ccc(F)c(F)c1` (single isomer, unassigned) [Example 96B, N^2-(4-(4-chloro-1H-imidazol-1-yl)-3-methoxyphenyl)-7-(3,4-difluorophenyl)-N^4-methyl-6,7-dihydro-5H-cyclopenta[d]pyrimidine-2,4-diamine], 8.34.

Staying with this assay, now noted: H4 APP751 SWE clone 8.20 cells, 19 h incubation; class symbols; read-out: Activity Rating (Aβ42 cellular IC50).
As to `CNc1nc(Nc2ccc(-n3cnc(Cl)c3)c(OC)c2)nc2c1COCC2c1ccccc1` (single isomer, unassigned) [Example 51B, N^2-(4-(4-chloro-1H-imidazol-1-yl)-3-methoxyphenyl)-N^4-methyl-8-phenyl-7,8-dihydro-5H-pyrano[4,3-d]pyrimidine-2,4-diamine], the pIC50 was 8.00 to 8.82.

In the case of `COc1cc(Nc2nc3c(c(N4C[C@@H](C)O[C@@H](C)C4)n2)CCC3c2ccc(F)cc2)ccc1-n1cnc(Cl)c1` (single isomer, unassigned) [Example 21B], the pIC50 was 6.00 to 7.00. Regarding `CNc1nc(Nc2ccc(-n3ncnc3C)c(OC)c2)nc2c1CN(C)CC2c1ccc(F)cc1` (stereo not drawn) [Example 199A, 8-(4-fluorophenyl)-N2-(3-methoxy-4-(5-methyl-1H-1,2,4-triazol-1-yl)phenyl)-N4,6-dimethyl-5,6,7,8-tetrahydropyrido[4,3-d]pyrimidine-2,4-diamine], the pIC50 is 6.00 to 7.00. With `CNc1nc(Nc2ccc(-n3cnc(Cl)c3)c(OC)c2)nc2c1COCC2c1ccc(Cl)cc1` (single isomer, unassigned) [Example 64A, N^2-(4-(4-chloro-1H-imidazol-1-yl)-3-methoxyphenyl)-8-(4-chlorophenyl)-N^4-methyl-7,8-dihydro-5H-pyrano[4,3-d]pyrimidine-2,4-diamine], the pIC50 is 8.00 to 8.82.

For the compound `COc1cc(Nc2nc3c(c(N4CC(OC)C4)n2)CCC3c2ccccc2)ccc1-n1cnc(Cl)c1` (single isomer, unassigned) [Example 183A, N-(4-(4-chloro-1H-imidazol-1-yl)-3-methoxyphenyl)-4-(3-methoxyazetidin-1-yl)-7-phenyl-6,7-dihydro-5H-cyclopenta[d]pyrimidin-2-amine], the pIC50 was 8.00 to 8.82. Still for that read-out and setting: in the case of `CNc1nc(Nc2ccc(-n3cnc(Cl)c3)c(OC)c2)nc2c1CCC2c1ccc(Cl)cc1` (single isomer, unassigned) [Example 94A, N^2-(4-(4-chloro-1H-imidazol-1-yl)-3-methoxyphenyl)-7-(4-chlorophenyl)-N^4-methyl-6,7-dihydro-5H-cyclopenta[d]pyrimidine-2,4-diamine] it was 8.00 to 8.82; in that of `CNc1nc(Nc2ccc(-n3cnc(C)n3)c(OC)c2)nc2c1CN(C)CC2c1ccc(F)cc1` (single isomer, unassigned) [Example 198A, 8-(4-fluorophenyl)-N2-(3-methoxy-4-(3-methyl-1H-1,2,4-triazol-1-yl)phenyl)-N4,6-dimethyl-5,6,7,8-tetrahydropyrido[4,3-d]pyrimidine-2,4-diamine], 6.00 to 7.00.

Turning to `CNc1nc(Nc2ccc(-n3cnc(Cl)c3)c(OC)c2)nc2c1COCC2c1ccc(F)c(F)c1` (stereo not drawn) [Example 115B, N2-(4-(4-chloro-1H-imidazol-1-yl)-3-methoxyphenyl)-8-(3,4-difluorophenyl)-N4-methyl-7,8-dihydro-5H-pyrano[4,3-d]pyrimidine-2,4-diamine], the pIC50 was 7.00 to 8.00. The same measure, in the same setting: in the case of `CCNc1nc(Nc2ccc(-n3cnc(Cl)c3)c(OC)c2)nc2c1COCC2c1ccc(F)cc1` (stereo not drawn) [Example 56B, N2-(4-(4-chloro-1H-imidazol-1-yl)-3-methoxyphenyl)-N4-ethyl-8-(4-fluorophenyl)-7,8-dihydro-5H-pyrano[4,3-d]pyrimidine-2,4-diamine] it was 7.00 to 8.00. The same measure, in the same setting: in the case of `CNc1nc(Nc2ccc(-n3ncnc3C)c(F)c2)nc2c1CCC2c1ccc(F)cc1` (single isomer, unassigned) [Example 26B, N^2-(3-fluoro-4-(5-methyl-1H-1,2,4-triazol-1-yl)phenyl)-7-(4-fluorophenyl)-N^4-methyl-6,7-dihydro-5H-cyclopenta[d]pyrimidine-2,4-diamine] it was 7.00 to 8.00.

The assay is the same for the next values; noted with them: H4 APP751 SWE clone 8.20 cells, 19 h incubation; read-out: Activity Rating (Aβ42 cellular IC50), numeric value.
Turning to `CNc1nc(Nc2ccc(-n3cnc(Cl)c3)c(OC)c2)nc2c1/C(=N/OC)CC2c1ccccc1` (stereo not drawn) [Example 201A, (E)-2-(4-(4-chloro-1H-imidazol-1-yl)-3-methoxyphenylamino)-4-(methylamino)-7-phenyl-6,7-dihydro-5H-cyclopenta[d]pyrimidin-5-one O-methyl oxime], the negative logarithm of the IC50 (pIC50) was 8.00.

(Values after patent publication US8637525B2, “Compounds for the reduction of beta-amyloid production” (Bristol-Myers Squibb Company, priority 2009, dated 2014).)
